Entries after “also recorded” stand apart in the source; their conditions may differ.

Assay [1] has as its system TRPMPZQ of pseudophyllidean cestodes. The settings on record: binding pocket variation of pseudophyllidean cestodes ref Sprague et al., 2025; cited from earlier work.
A further assay concerns natural TRPMPZQ variants. The assay is described as follows: Ca2+ reporter assay, entire natural variation collection. The assay is classed as cell-based, Schistosoma mansoni. As to conditions: mean ± sd.
A further assay relates to Fasciola spp. TRPMPZQ. The settings on record: Fasciola spp. TRPMPZQ ref Park et al., 2021; cited from earlier work.

With `O=C(C1CCCCC1)N1CC(=O)N2CCc3ccccc3C2C1` (racemic) [(±)-PZQ, praziquantel], in assay [1], the “sensitivity to PZQ” value is recorded as “micromolar range”. The “average RA of the entire natural variation collection” value with natural TRPMPZQ variants was 1.2 ± 0.55. For the same molecule, in the assay with Fasciola spp. TRPMPZQ, the “sensitivity of TRPMPZQ to PZQ” value was “insensitivity; also recorded: refractory”.

Values taken from PMC13020021 (International Journal for Parasitology: Drugs and Drug …, 2026).
